The source of these data is ChEMBL document CHEMBL2021828, “An approach for differentiating isozymes. Construction of libraries containing short aromatic peptides as part of a method to design selective inhibitors against lipases” (Bioorg Med Chem Lett, 2012).

The target in data set [1] is T1, Pancreatic triacylglycerol lipase (Homo sapiens) (UniProt P16233).
T1 sequence (whole entry): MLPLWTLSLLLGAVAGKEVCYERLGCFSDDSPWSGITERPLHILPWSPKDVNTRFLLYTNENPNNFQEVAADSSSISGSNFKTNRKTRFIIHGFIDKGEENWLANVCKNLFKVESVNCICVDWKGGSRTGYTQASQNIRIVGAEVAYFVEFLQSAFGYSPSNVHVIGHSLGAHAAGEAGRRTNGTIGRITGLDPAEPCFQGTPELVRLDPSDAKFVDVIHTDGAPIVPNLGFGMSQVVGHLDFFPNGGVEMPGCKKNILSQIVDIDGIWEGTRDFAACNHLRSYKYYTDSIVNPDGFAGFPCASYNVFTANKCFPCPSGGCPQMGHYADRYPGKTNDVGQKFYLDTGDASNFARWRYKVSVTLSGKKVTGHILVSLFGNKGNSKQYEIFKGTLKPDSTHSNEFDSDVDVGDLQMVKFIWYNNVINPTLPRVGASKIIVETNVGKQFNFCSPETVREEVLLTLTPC
Kind of data set: (§1) Inhibition of human pancreatic lipase using p-nitrophenylbutyrate as substrate by Dixon plot analysis.

Data set [2] has as its target T2, Pancreatic triacylglycerol lipase (Sus scrofa) (UniProt P00591).
T2 sequence (whole entry): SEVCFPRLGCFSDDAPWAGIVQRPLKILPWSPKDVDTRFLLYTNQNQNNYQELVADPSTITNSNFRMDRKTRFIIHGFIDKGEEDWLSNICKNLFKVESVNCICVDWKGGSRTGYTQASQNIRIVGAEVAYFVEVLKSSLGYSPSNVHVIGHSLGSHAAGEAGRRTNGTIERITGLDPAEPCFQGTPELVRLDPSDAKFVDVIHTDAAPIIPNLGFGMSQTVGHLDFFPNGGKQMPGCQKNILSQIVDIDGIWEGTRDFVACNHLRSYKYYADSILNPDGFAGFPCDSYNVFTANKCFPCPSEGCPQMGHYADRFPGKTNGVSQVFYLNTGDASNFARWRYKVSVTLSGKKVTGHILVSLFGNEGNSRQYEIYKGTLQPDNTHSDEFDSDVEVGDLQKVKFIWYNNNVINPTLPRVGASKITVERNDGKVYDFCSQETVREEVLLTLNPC
Nature of the data set: (§2) Inhibition of porcine pancreatic lipase using p-nitrophenylbutyrate as substrate by Dixon plot analysis.

Data set [3] is described as follows: Discrimination ratio of Ki for porcine pancreatic lipase to Ki for Chromobacterium viscosum lipase.
Data set [4] has as its system Chromobacterium viscosum. Kind of data set: Activity of Chromobacterium viscosum lipase using p-nitrophenylbutyrate as substrate by Lineweaver-Burk plot analysis relative to control.
The nature of data set [5]: Discrimination ratio of Ki for Thermomyces lanuginosus lipase to Ki for Chromobacterium viscosum lipase.
Data set [6] can be described thus: Inhibition of Chromobacterium viscosum lipase using p-nitrophenylbutyrate as substrate by Dixon plot analysis.
Data set [7] can be described thus: Discrimination ratio of Ki for human pancreatic lipase to Ki for Chromobacterium viscosum lipase.
For data set [8], the target named is T2, Pancreatic triacylglycerol lipase (Sus scrofa). Kind of data set: Activity of porcine pancreatic lipase using p-nitrophenylbutyrate as substrate by Lineweaver-Burk plot analysis.
For data set [9], the target named is T3, Lipase (Thermomyces lanuginosus) (UniProt O59952).
T3 sequence (whole entry): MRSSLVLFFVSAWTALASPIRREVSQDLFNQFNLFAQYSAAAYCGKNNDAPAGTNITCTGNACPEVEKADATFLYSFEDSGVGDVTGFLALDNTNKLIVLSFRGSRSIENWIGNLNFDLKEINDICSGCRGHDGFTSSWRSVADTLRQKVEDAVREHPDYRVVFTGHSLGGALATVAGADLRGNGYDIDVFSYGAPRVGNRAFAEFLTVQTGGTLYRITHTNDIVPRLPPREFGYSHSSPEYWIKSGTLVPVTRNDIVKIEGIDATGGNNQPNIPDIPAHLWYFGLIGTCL
Nature of the data set: Activity of Thermomyces lanuginosus lipase using p-nitrophenylbutyrate as substrate by Lineweaver-Burk plot analysis.

The target in data set [10] is T1, Pancreatic triacylglycerol lipase (Homo sapiens). Kind of data set: Activity of human pancreatic lipase using p-nitrophenylbutyrate as substrate by Lineweaver-Burk plot analysis.
The test system of data set [11] is Chromobacterium viscosum. Kind of data set: Activity of Chromobacterium viscosum lipase using p-nitrophenylbutyrate as substrate by Lineweaver-Burk plot analysis.
Data set [12] concerns the target T3, Lipase (Thermomyces lanuginosus). Nature of the data set: Inhibition of Thermomyces lanuginosus lipase using p-nitrophenylbutyrate as substrate by Dixon pot analysis.
The nature of data set [13]: Solubility of the compound in buffer. Format: physicochemical.
Data set [14] concerns the target T4, Pancreatic triacylglycerol lipase (Homo sapiens, UniProt P16233).
T4 sequence (P16233 whole entry): T1 sequence (whole entry)
Described as §1.

In data set [15] the target is T5, Pancreatic triacylglycerol lipase (Sus scrofa, UniProt P00591).
T5 sequence (P00591 whole entry): T2 sequence (whole entry)
The description is as §2.

Activity calls are given as the source filed them. The calls are words filed in the database; no cut-off is given here. Bounds are passed on as bounds.

As for `CCCCOc1ccc(NC(=O)CCC(=O)N[C@@H](Cc2ccccc2)C(=O)N[C@@H](Cc2ccccc2)C(N)=O)cc1`, the inhibition result in [1] and in data set [2] was “inactive” in each case. The Ratio Ki in data set [3] is 140; in data set [5] it was 84; in [7], 140. In the data set with Chromobacterium viscosum [4], this molecule showed a fold change (FC) of 20. The same molecule had an inhibition constant Ki in data set [6] of 2.6 µM.
For `CCCC(=O)Oc1ccc(NC(=O)CCC(=O)N[C@@H](Cc2ccc(O)cc2)C(=O)N[C@@H](Cc2ccccc2)C(N)=O)cc1`, the outcome (in data set [8]; in data set [9]; in [10]; in the data set with Chromobacterium viscosum [11]) was Active.
Take `CCCC(=O)Oc1ccc(NC(=O)CCC(=O)N[C@@H](Cc2ccccc2)C(=O)N[C@@H](Cc2ccccc2)C(N)=O)cc1`: the outcome (in [8]; in [9]; in [10]; in the data set with Chromobacterium viscosum [11]) was Active. Moreover, the inhibition result in data set [1], in data set [2] and in [12] was “inactive” each time. Moreover, the Ratio Ki in data set [3], in [5] and in data set [7] was over 160 in each case. Besides, in the data set with Chromobacterium viscosum [4], the fold change (FC) came to 20. In addition, in the data set on Chromobacterium viscosum [11], the Km was found to be 180 µM. In addition, the Ki in [6] is 37 µM.
As for `CCCC(=O)Oc1ccc(NC(=O)CCC(=O)N[C@@H](Cc2ccc(O)cc2)C(=O)N[C@@H](Cc2ccc(O)cc2)C(N)=O)cc1`, the outcome (in data set [8]; in data set [9]; in data set [10]; in the data set on Chromobacterium viscosum [11]) was Active.
As to `CCCC(=O)Oc1ccc(NC(=O)CCC(=O)N[C@@H](Cc2c[nH]c3ccccc23)C(=O)N[C@@H](Cc2c[nH]c3ccccc23)C(N)=O)cc1`, the outcome (in data set [8]; in data set [9]; in data set [10]; with Chromobacterium viscosum [11]) was Active.
`NC(=O)[C@H](Cc1ccccc1)NC(=O)[C@H](Cc1ccccc1)NC(=O)CCC(=O)Nc1ccc(O)cc1`: the Ratio Ki in data set [3], in data set [5] and in data set [7] was over 160 in each case. Affinity in data set [6] was put at a Ki of 37 µM.
Take `CCCCCCCCCCOc1ccc(NC(=O)CCC(=O)N[C@@H](Cc2ccccc2)C(=O)N[C@@H](Cc2ccccc2)C(N)=O)cc1`: the solubility result in [13] is “Insoluble”.
`CCCC(=O)Oc1ccc([N+](=O)[O-])cc1`: the Km with Chromobacterium viscosum [11] amounted to 3500 µM.
Take `CCCC(=O)Oc1ccc(NC(=O)CCC(=O)N[C@@H](Cc2ccc(O)cc2)C(=O)N[C@@H](Cc2c[nH]c3ccccc23)C(N)=O)cc1`: the result (in [8]; in data set [9]; in data set [10]; in the data set with Chromobacterium viscosum [11]) was Active.
In the case of `CCCC(=O)Oc1ccc(NC(=O)CCC(=O)N[C@@H](Cc2ccccc2)C(=O)N[C@@H](Cc2ccc(O)cc2)C(N)=O)cc1`, the result (in data set [8]; in data set [9]; in data set [10]; in the data set with Chromobacterium viscosum [11]) was Active.
Take `CCCC(=O)Oc1ccc(NC(=O)CCC(=O)N[C@@H](Cc2ccccc2)C(=O)N[C@@H](Cc2c[nH]c3ccccc23)C(N)=O)cc1`: the result (in [8]; in [9]; in data set [10]; in the data set on Chromobacterium viscosum [11]) was Active.
`CCCC(=O)Oc1ccc(NC(=O)CCC(=O)N[C@@H](Cc2c[nH]c3ccccc23)C(=O)N[C@@H](Cc2ccc(O)cc2)C(N)=O)cc1`: the result (in data set [8]; in [9]; in data set [10]; in the data set with Chromobacterium viscosum [11]) was Active.
`CCCCOc1ccc(NC(=O)CCC(=O)N[C@@H](Cc2ccccc2)C(=O)N[C@@H](Cc2ccc(O)cc2)C(N)=O)cc1`: the figures for the inhibition constant (Ki) in data set [14] and in data set [15] were 550 µM and 160 µM, respectively. Besides, the inhibition result in data set [1] and in data set [2] was “inactive” throughout. In data set [13], the solubility result was “soluble”.
Regarding `CCCCCCCOc1ccc(NC(=O)CCC(=O)N[C@@H](Cc2ccccc2)C(=O)N[C@@H](Cc2ccccc2)C(N)=O)cc1`, the Ki in data set [15] worked out at 39 µM; in data set [6], 0.37 µM. For the same molecule, the solubility result in data set [13] is “Insoluble”.
In the case of `CCCCOc1ccc(NC(=O)CCC(=O)N[C@@H](Cc2ccc(O)cc2)C(=O)N[C@@H](Cc2ccccc2)C(N)=O)cc1`, the Ki came to 170 µM in data set [14] and 71 µM in data set [15]. Also, the inhibition result in data set [1] and in [2] was “inactive” in each case.
On to `CCCC(=O)Oc1ccc(NC(=O)CCC(=O)N[C@@H](Cc2c[nH]c3ccccc23)C(=O)N[C@@H](Cc2ccccc2)C(N)=O)cc1`, for which the outcome (in [8]; in data set [9]; in data set [10]; with Chromobacterium viscosum [11]) was Active.

The term Ki denotes a measure of affinity in units of concentration, obtained from inhibition or displacement. A low value points to a stronger hold on the target. In general, Km refers to the concentration of substrate that gives half-maximal velocity.
